In brackets after ≈: the same amount, converted by molar mass. Where two headings read alike, the source gives them in different places.
What was measured:
Daphnia magna = Daphnia magna acute 48 h immobilization assay (Daphtoxkit); type: in vivo; conditions: for Average effect (N immobile, 5 daphnids per replicate): 48 h;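 as to Average effect (N immobile, 5 daphnids per replicate): test concentrations in mg per L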
Description: Six concentration levels (5 concentrations plus control, four replicate beakers for each concentrations, five individual for each beaker) were tested. […] Each experiment was repeated in triplicate.

Tetrahymena thermophila = experiment: microbe, parasite or virus in culture; type: cell-based; conditions: for EC50: Tetrahymena thermophila
Description: The tests were performed in accordance with the protocols provided by the manufacturer. […] The tests were carried out in disposable spectrophotometric cells of 1 cm path-length, to enable the measurement of the optical density (OD) at 440 nm. […] This change in OD over the time period is used to quantify the degree of inhibition and subsequent calculation of the EC50. Each concentration was repeated in duplicate.

[1] = Activated sludge simulating microcosms (degradation of FL, formation of NFL); type: physicochemical
Description: Activated sludge microcosm experiments were conducted in the dark and aerobic conditions. Three microcosm bioreactors were investigated in duplicate. They were filled with 2 L of fresh activated sludge collected from a local wastewater treatment plant. […] Dark conditions were simulated by covering up the flask with foil. Aerobic conditions were obtained using air from BOC air cylinder and a thorough mixing was maintained using magnetic stirrers. The experiment was 24 hours long. […] Collected samples were subsequently frozen until their analysis to prevent degradation of compounds.
The compounds studied are characterized as having low volatility and therefore volatilization was not considered as a potential removal pathway in studied microcosms. Photodegradation was also not considered (not relevant) under tested activated sludge conditions. Therefore the two important degradation mechanisms to consider were biodegradation and sorption to sludge. […] However, in this study, sorption equilibrium was assumed and therefore sorption could be considered negligible. This is because sorption is assumed to be fast when compared to biological degradation.
Several reports utilized pseudo-first-order kinetics for degradation of micropollutants in activated sludge reactors[48]–[50]. […] Pseudo-first order biodegradation rate k1 [L g^−1h^−1]

[2] = River water simulating microcosms (degradation of FL)
[3] = cited from earlier work

Molecule: NCC[C@@H](Oc1ccc(C(F)(F)F)cc1)c1ccccc1 [(R)-NFL, (R)-3-phenyl-3-[4-(trifluoromethyl)phenoxy]-1-propanamine]
- Average effect (N immobile, 5 daphnids per replicate) (Daphnia magna; concentration 0.5): 0.25
- Average effect (N immobile, 5 daphnids per replicate) (Daphnia magna; concentration 1.5): 0.5
- Average effect (N immobile, 5 daphnids per replicate) (Daphnia magna; concentration 5): 4.25
- Average effect (N immobile, 5 daphnids per replicate) (Daphnia magna; concentration 16): 5
- Average effect (N immobile, 5 daphnids per replicate) (Daphnia magna; concentration 50): 5
- EC50 (Daphnia magna; Daphnia magna, D. magna, this study, read-out: EC50_48h -immobilization): 2.9 µg/mL (≈ 9.82 µM)
- EC50 (Tetrahymena thermophila; T. thermophila, this study, read-out: EC50_24h -growth): 5.8 µg/mL (≈ 19.6 µM)
- EC50 (Tetrahymena thermophila; definitive test, read-out: 24hEC50): 5.84 µg/mL (≈ 19.8 µM)
- EC50 (Tetrahymena thermophila; range test, read-out: 24hEC50): 0.418 µg/mL (≈ 1.42 µM)
- % I (percentage inhibition) (Tetrahymena thermophila; definitive test, conc. 0.220): -4.385%
- % I (percentage inhibition) (Tetrahymena thermophila; definitive test, conc. 0.661): -11.658%
- % I (percentage inhibition) (Tetrahymena thermophila; definitive test, conc. 22.017): 92.941%
- % I (percentage inhibition) (Tetrahymena thermophila; definitive test, conc. 35.941): 94.118%
- % I (percentage inhibition) (Tetrahymena thermophila; definitive test, conc. 57.505): 94.332%
- % I (percentage inhibition) (Tetrahymena thermophila; definitive test, conc. 118.604): 103.743%
- % I (percentage inhibition) (Tetrahymena thermophila; definitive test, conc. 179.703): 104.492%
- % I (percentage inhibition) (Tetrahymena thermophila; range test, conc. 0.005): 10.591%
- % I (percentage inhibition) (Tetrahymena thermophila; range test, conc. 0.050): -7.266%
- % I (percentage inhibition) (Tetrahymena thermophila; range test, conc. 0.500): 50.369%
- % I (percentage inhibition) (Tetrahymena thermophila; range test, conc. 5.000): 101.108%
- % I (percentage inhibition) (Tetrahymena thermophila; range test, conc. 50.000): 106.897%
- Concentration ([1]; 10 µg L-1 microcosm, time 0): 0.035 ± 0.009 ng/mL
- Concentration ([1]; 10 µg L-1 microcosm, time 0.5): 0.029 ± 0.001 ng/mL
- Concentration ([1]; 10 µg L-1 microcosm, time 1): 0.077 ± 0.004 ng/mL
- Concentration ([1]; 10 µg L-1 microcosm, time 1.5): 0.012 ± 0.013 ng/mL
- Concentration ([1]; 10 µg L-1 microcosm, time 2): 0.050 ± 0.011 ng/mL
- Concentration ([1]; 10 µg L-1 microcosm, time 3): 0.043 ± 0.022 ng/mL
- Concentration ([1]; 10 µg L-1 microcosm, time 5): 0.070 ± 0.016 ng/mL
- Concentration ([1]; 10 µg L-1 microcosm, time 8): 0.055 ± 0.019 ng/mL
- Concentration ([1]; 10 µg L-1 microcosm, time 12): 0.126 ± 0.035 ng/mL
- Concentration ([1]; 10 µg L-1 microcosm, time 24): 0.182 ± 0.000 ng/mL
- Concentration ([1]; 100 µg L-1 microcosm, time 0): 0.109 ± 0.023 ng/mL
- Concentration ([1]; 100 µg L-1 microcosm, time 0.5): 0.132 ± 0.015 ng/mL
- Concentration ([1]; 100 µg L-1 microcosm, time 1): 0.128 ± 0.038 ng/mL
- Concentration ([1]; 100 µg L-1 microcosm, time 1.5): 0.146 ± 0.039 ng/mL
- Concentration ([1]; 100 µg L-1 microcosm, time 2): 0.428 ± 0.019 ng/mL
- Concentration ([1]; 100 µg L-1 microcosm, time 3): 0.429 ± 0.164 ng/mL
- Concentration ([1]; 100 µg L-1 microcosm, time 5): 0.616 ± 0.227 ng/mL
- Concentration ([1]; 100 µg L-1 microcosm, time 8): 0.710 ± 0.193 ng/mL
- Concentration ([1]; 100 µg L-1 microcosm, time 12): 0.859 ± 0.069 ng/mL
- Concentration ([1]; 100 µg L-1 microcosm, time 24): 1.302 ± 0.066 ng/mL
- Concentration ([2]; DAR (dark abiotic), day 5): 0.002 ± 0.000 ng/mL
- Concentration ([2]; DBR (dark biotic), day 1): 0.002 ± 0.001 ng/mL
- Concentration ([2]; DBR (dark biotic), day 3): 0.002 ± 0.001 ng/mL
- Concentration ([2]; DBR (dark biotic), day 5): 0.002 ± 0.001 ng/mL
- Concentration ([2]; LAR (light abiotic), day 2): 0.001 ± 0.000 ng/mL
- Concentration ([2]; LAR (light abiotic), day 3): 0.004 ± 0.001 ng/mL
- Concentration ([2]; LAR (light abiotic), day 4): 0.003 ± 0.000 ng/mL
- Concentration ([2]; LAR (light abiotic), day 5): 0.002 ± 0.001 ng/mL
- Concentration ([2]; LAR (light abiotic), day 8): 0.001 ± 0.001 ng/mL
- Concentration ([2]; LAR (light abiotic), day 9): 0.002 ± 0.001 ng/mL
- Concentration ([2]; LAR (light abiotic), day 10): 0.002 ± 0.000 ng/mL
- Concentration ([2]; LAR (light abiotic), day 11): 0.003 ± 0.000 ng/mL
- Concentration ([2]; LAR (light abiotic), day 12): 0.003 ± 0.001 ng/mL
- Concentration ([2]; LAR (light abiotic), day 15): 0.002 ± 0.001 ng/mL
- Concentration ([2]; LAR (light abiotic), day 16): 0.004 ± 0.001 ng/mL
- Concentration ([2]; LBR (light biotic), day 1): 0.001 ± 0.000 ng/mL
- Concentration ([2]; LBR (light biotic), day 2): 0.002 ± 0.000 ng/mL
- Concentration ([2]; LBR (light biotic), day 3): 0.002 ± 0.001 ng/mL
- Concentration ([2]; LBR (light biotic), day 5): 0.003 ± 0.001 ng/mL

Molecule: FL glucuronide
- excreted in the urine as this species ([3]; in vivo): 7.4%

Molecule: O=C(O)CNC(=O)c1ccccc1 [hippuric acid]
- excreted in the urine as this species ([3]; after FL, ref [3]): > 20%
